A short description of this assay: Inhibition of sweet almond beta-glucosidase after 10 mins using 4-nitrophenylbeta-D-glucopyranoside as a substrate by Lineweaver-Burk and double reciprocal analysis. Further details: species or system Prunus dulcis.

This passage reports Ki results from ChEMBL document CHEMBL1765013, “Structure-activity relationships in a series of C2-substituted gluco-configured tetrahydroimidazopyridines as β-glucosidase inhibitors” (Bioorg Med Chem, 2011).

Consider `O=C(CCc1cn2c(n1)[C@H](O)[C@@H](O)[C@H](O)[C@H]2CO)Nc1ccccc1`, for which the Ki (as a rule, a dissociation constant, usually derived from enzyme kinetics or from competition with a known ligand) was 6.8 nM.

As to `OC[C@@H]1[C@@H](O)[C@H](O)[C@@H](O)c2nc(CCc3ccc(F)cc3)cn21`, the Ki turned out to be 3.2 nM.

`OC[C@@H]1[C@@H](O)[C@H](O)[C@@H](O)c2nc(CCc3ccc(C4CCCCC4)cc3)cn21`: the Ki is 56.1 nM.

As to `CC(C)(CCc1cn2c(n1)[C@H](O)[C@@H](O)[C@H](O)[C@H]2CO)C(=O)Nc1ccccc1`, the Ki was 3.5 nM.

`Cc1ccc(CCc2cn3c(n2)[C@H](O)[C@@H](O)[C@H](O)[C@H]3CO)cc1` showed a Ki of 0.58 nM. This Ki is about 6-fold lower than that of the compound before.

On to `COc1ccc(CCc2cn3c(n2)[C@H](O)[C@@H](O)[C@H](O)[C@H]3CO)cc1`, for which affinity was put at a Ki of 2 nM. This Ki is about 3.4-fold higher than that of the compound before.

Regarding `CCCCCCCCc1cn2c(n1)[C@H](O)[C@@H](O)[C@H](O)[C@H]2CO`, affinity was put at a Ki of 10.7 nM.

For `OC[C@@H]1[C@@H](O)[C@H](O)[C@@H](O)c2nccn21`, the affinity corresponds to a Ki of 100 nM.

For the compound `OC[C@@H]1[C@@H](O)[C@H](O)[C@@H](O)c2nc(CCc3ccccc3)cn21`, the affinity corresponds to a Ki of 1.9 nM.

The compound `CC(C)(C)CCc1cn2c(n1)[C@H](O)[C@@H](O)[C@H](O)[C@H]2CO` displayed a Ki of 0.64 nM.

As for `OC[C@@H]1[C@@H](O)[C@H](O)[C@@H](O)c2nc(CCc3ccc(-c4ccccc4)cc3)cn21`, the inhibitory constant (Ki) worked out at 24.5 nM.
